Source: PubChem BioAssay (NCI)
Values joined by “and” are separate entries in the source; they are usually repeats but may differ in a detail not shown here. Equal entries are not always repeated.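 Growth conditions: 96-well plates. Treatment: test compound, 48 hours, 5 concentrations. Analysis: linear interpolation between bracketing concentrations; unreached endpoints set to highest concentration. At the GI50, growth is halved. At the TGI there is no net growth.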

Key:
Assay in all cases: NCI-60 cell line screen, 48 h
CAKI-1 renal = test system: CAKI-1 renal
MCF7 breast = test system: MCF7 breast
SF-268 CNS = test system: SF-268 CNS
HCT-15 colon = test system: HCT-15 colon
HOP-62 NSCLC = test system: HOP-62 NSCLC
KM12 colon = test system: KM12 colon
HCT-116 colon = test system: HCT-116 colon
DU-145 prostate = test system: DU-145 prostate
TK-10 renal = test system: TK-10 renal
COLO 205 colon = test system: COLO 205 colon

N#CCC1COc2ccccc2O1 (configuration not stated)
TGI (CAKI-1 renal): > 10 µM
TGI (MCF7 breast): > 10 µM
TGI (SF-268 CNS): > 10 µM
TGI (HCT-15 colon): > 10 µM
TGI (HOP-62 NSCLC): > 10 µM
TGI (KM12 colon): > 10 µM
TGI (HCT-116 colon): > 10 µM
TGI (DU-145 prostate): > 10 µM
TGI (TK-10 renal): > 10 µM
TGI (COLO 205 colon): > 10 µM

Nc1nc(SCc2ccccn2)c2ncn(C3CCCC3)c2n1
TGI (CAKI-1 renal): > 100 µM
TGI (MCF7 breast): > 100 µM
TGI (SF-268 CNS): > 100 µM
TGI (HCT-15 colon): > 100 µM
TGI (HOP-62 NSCLC): > 100 µM
TGI (KM12 colon): > 100 µM
TGI (HCT-116 colon): > 100 µM
TGI (DU-145 prostate): > 100 µM
TGI (TK-10 renal): > 100 µM
TGI (COLO 205 colon): > 100 µM

O=C(Nc1ccc(N2CCNCC2)cc1)c1[nH]ncc1Nc1ncnc2sc3c(c12)CCC3
GI50 (CAKI-1 renal): 0.148 µM
TGI (CAKI-1 renal): 1.6 µM
GI50 (MCF7 breast): 0.166 µM
TGI (MCF7 breast): 1.3 µM
GI50 (SF-268 CNS): 0.89 µM
TGI (SF-268 CNS): 2.76 µM
GI50 (HCT-15 colon): 0.224 µM
TGI (HCT-15 colon): 1.29 µM
GI50 (HOP-62 NSCLC): 0.621 µM
TGI (HOP-62 NSCLC): 2.79 µM
GI50 (KM12 colon): 0.219 µM
TGI (KM12 colon): 1.33 µM
GI50 (HCT-116 colon): 0.109 µM
TGI (HCT-116 colon): 0.297 µM
GI50 (DU-145 prostate): 0.302 µM
TGI (DU-145 prostate): 1.19 µM
GI50 (TK-10 renal): 0.41 µM
TGI (TK-10 renal): 2.05 µM
GI50 (COLO 205 colon): 0.124 µM
TGI (COLO 205 colon): 1.31 µM

N#Cc1c(-c2nc3ccccc3s2)c(=O)oc2cc(O)ccc12
TGI (CAKI-1 renal): 85.6 µM
TGI (MCF7 breast): > 100 µM
TGI (SF-268 CNS): > 100 µM
TGI (HCT-15 colon): > 100 µM
TGI (HOP-62 NSCLC): 57.3 µM
TGI (KM12 colon): 73 µM
TGI (HCT-116 colon): > 100 µM
TGI (DU-145 prostate): > 100 µM
TGI (TK-10 renal): > 100 µM
TGI (COLO 205 colon): 30.8 µM

C[C@@H]1C[C@@H](O)[C@]2(O)O[C@@H]3C[C@@]4(C=O)[C@@H](CC[C@@H]5[C@@H]4CC[C@]4(C)[C@@H](C6=CC(=O)OC6)CC[C@]54O)C[C@H]3O[C@@H]2O1
GI50 (CAKI-1 renal): 0.0432 µM
TGI (CAKI-1 renal): 0.0486 µM and 0.36 µM
TGI (MCF7 breast): 0.16 µM
GI50 (SF-268 CNS): 0.00621 µM and 0.005 µM
TGI (SF-268 CNS): 0.0151 µM and 0.0247 µM and 0.0474 µM
GI50 (HCT-15 colon): 0.06 µM
TGI (HCT-15 colon): 0.0605 µM and 0.25 µM
GI50 (HOP-62 NSCLC): 0.0143 µM and 0.005 µM
TGI (HOP-62 NSCLC): 0.0576 µM and 0.067 µM and 0.0709 µM
GI50 (KM12 colon): 0.0722 µM and 0.0346 µM
TGI (KM12 colon): 0.476 µM and 0.217 µM and 0.608 µM
GI50 (HCT-116 colon): 0.0197 µM
TGI (HCT-116 colon): 0.0532 µM and 0.122 µM
TGI (DU-145 prostate): 0.111 µM
GI50 (TK-10 renal): 0.0202 µM and 0.005 µM
TGI (TK-10 renal): 0.098 µM and 0.0775 µM and 0.0558 µM
GI50 (COLO 205 colon): 0.108 µM and 0.025 µM
TGI (COLO 205 colon): 0.0826 µM and 0.277 µM and 0.0918 µM

CN1CCN(CN2C(=O)C3C4C=CC(C3C2=O)C2C3C(=O)N(CN5CCN(C)CC5)C(=O)C3C42)CC1 (configuration not stated)
GI50 (CAKI-1 renal): 44.8 µM and 33.6 µM and 70.6 µM
TGI (CAKI-1 renal): > 100 µM
TGI (MCF7 breast): > 100 µM
TGI (SF-268 CNS): 50.6 µM and > 62.6 µM and 33.9 µM
TGI (HCT-15 colon): 34.8 µM and 42.1 µM and 30.3 µM
TGI (HOP-62 NSCLC): > 100 µM
TGI (KM12 colon): 41.7 µM and 51.9 µM and > 100 µM
TGI (HCT-116 colon): 33.4 µM and 36.4 µM and 27.3 µM
TGI (DU-145 prostate): 77.2 µM
TGI (TK-10 renal): > 100 µM
TGI (COLO 205 colon): 33.2 µM and 34.5 µM and 35.3 µM

COc1ccc2nc(N/N=C(\C)c3ccccn3)cc(C)c2c1
GI50 (CAKI-1 renal): 0.271 µM
TGI (CAKI-1 renal): 1.17 µM
GI50 (MCF7 breast): 0.288 µM
TGI (MCF7 breast): 1.07 µM
GI50 (SF-268 CNS): 0.228 µM
TGI (SF-268 CNS): 1.46 µM
GI50 (HCT-15 colon): 0.0916 µM
TGI (HCT-15 colon): 1.65 µM
GI50 (HOP-62 NSCLC): 0.259 µM
TGI (HOP-62 NSCLC): 1.11 µM
GI50 (KM12 colon): 0.321 µM
TGI (KM12 colon): 1.6 µM
GI50 (HCT-116 colon): 0.363 µM
TGI (HCT-116 colon): 1.13 µM
GI50 (DU-145 prostate): 0.215 µM
TGI (DU-145 prostate): 1.17 µM
GI50 (TK-10 renal): 0.207 µM
TGI (TK-10 renal): 0.991 µM
GI50 (COLO 205 colon): 0.024 µM
TGI (COLO 205 colon): 1.15 µM

CNC(=O)c1cc(OC2CCC(NC(=O)Nc3ccc(Cl)c(C(F)(F)F)c3)CC2)ccn1 (configuration not stated)
GI50 (CAKI-1 renal): 6.75 µM
TGI (CAKI-1 renal): 31.9 µM
GI50 (MCF7 breast): 3.48 µM
TGI (MCF7 breast): 18.1 µM
GI50 (SF-268 CNS): 13.7 µM
TGI (SF-268 CNS): 52 µM
GI50 (HCT-15 colon): 6.17 µM
TGI (HCT-15 colon): 23.6 µM
GI50 (HOP-62 NSCLC): 15 µM
TGI (HOP-62 NSCLC): 31.4 µM
GI50 (KM12 colon): 0.713 µM
TGI (KM12 colon): 14 µM
GI50 (HCT-116 colon): 4.35 µM
TGI (HCT-116 colon): 16.6 µM
GI50 (DU-145 prostate): 12.8 µM
TGI (DU-145 prostate): 32.5 µM
GI50 (TK-10 renal): 18.4 µM
TGI (TK-10 renal): 49.2 µM
GI50 (COLO 205 colon): 8.81 µM
TGI (COLO 205 colon): 22.3 µM

CS(=O)(=O)CCNCc1nc(-c2ccc3ncnc(Nc4ccc(F)c(Cl)c4)c3c2)cs1
GI50 (CAKI-1 renal): 1.47 µM
TGI (CAKI-1 renal): > 25 µM
GI50 (MCF7 breast): > 23.3 µM
TGI (MCF7 breast): > 25 µM
GI50 (SF-268 CNS): > 17.9 µM
TGI (SF-268 CNS): > 25 µM
GI50 (HCT-15 colon): 17.5 µM
TGI (HCT-15 colon): > 25 µM
GI50 (HOP-62 NSCLC): > 24.1 µM
TGI (HOP-62 NSCLC): > 25 µM
GI50 (KM12 colon): 21.1 µM
TGI (KM12 colon): > 25 µM
GI50 (HCT-116 colon): > 23.9 µM
TGI (HCT-116 colon): > 25 µM
GI50 (DU-145 prostate): 5.49 µM
TGI (DU-145 prostate): > 25 µM
GI50 (TK-10 renal): 0.232 µM
TGI (TK-10 renal): > 25 µM
GI50 (COLO 205 colon): > 20.5 µM
TGI (COLO 205 colon): > 25 µM

COc1ccc(N=C2CSc3nnc(-c4cc(F)c(Cl)cc4Cl)n3N2)cc1
GI50 (CAKI-1 renal): 1.52 µM
TGI (CAKI-1 renal): 4.49 µM
GI50 (MCF7 breast): 0.464 µM
TGI (MCF7 breast): 19.8 µM
GI50 (SF-268 CNS): 1.69 µM
TGI (SF-268 CNS): 21.7 µM
GI50 (HCT-15 colon): 1.03 µM
TGI (HCT-15 colon): 17.2 µM
GI50 (HOP-62 NSCLC): 0.458 µM
TGI (HOP-62 NSCLC): 2.77 µM
GI50 (KM12 colon): 0.469 µM
TGI (KM12 colon): 3.45 µM
GI50 (HCT-116 colon): 0.43 µM
TGI (HCT-116 colon): 1.96 µM
GI50 (DU-145 prostate): 1.47 µM
TGI (DU-145 prostate): 3.87 µM
GI50 (TK-10 renal): 1.4 µM
TGI (TK-10 renal): 4.06 µM
GI50 (COLO 205 colon): 1.81 µM
TGI (COLO 205 colon): 16 µM

COc1ccc(C(=O)/C(Br)=C/C(=O)O)cc1
TGI (CAKI-1 renal): 148 µM and 154 µM
GI50 (MCF7 breast): 7.41 µM
TGI (MCF7 breast): 44.5 µM and 59.9 µM
GI50 (SF-268 CNS): 27.3 µM
TGI (SF-268 CNS): 202 µM and 225 µM
GI50 (HCT-15 colon): 10.6 µM
TGI (HCT-15 colon): 101 µM and 94.4 µM
GI50 (HOP-62 NSCLC): 24.1 µM
TGI (HOP-62 NSCLC): 58.3 µM and 50.3 µM
TGI (KM12 colon): 48.8 µM and 48 µM
GI50 (HCT-116 colon): 25.9 µM and 25.4 µM
TGI (HCT-116 colon): 81.3 µM and 65.8 µM
GI50 (DU-145 prostate): 65.3 µM
TGI (DU-145 prostate): 128 µM and 202 µM
GI50 (TK-10 renal): 113 µM
TGI (TK-10 renal): 167 µM and 285 µM
GI50 (COLO 205 colon): 15.1 µM
TGI (COLO 205 colon): 34.4 µM and 54.2 µM
